Measurements taken from paper PMC10716780, “The multistep oxidation of cholesterol to pregnenolone by human cytochrome P450 11A1 is highly processive” (The Journal of Biological Chemistry, 2023).

How the values were obtained:
[1] = tested on: bovine P450 11A1; set-up: method as in PMID 217878; conditions: equilibrium dialysis, bovine P450 11A1 ref 26; cited from earlier work
[2] = target: T1, human P450 11A1 (Homo sapiens, UniProt P05108); test: Single-turnover kinetics of P450 11A1 with [1,2-3H]-cholesterol (radio-HPLC); type: biochemical; set-up: M A S T R S P R P F N E I P S P G D N; Met-Ala (N-terminal start residues in place of the transit peptide and Ile40) (N); made in house; host or cells: E. coli (P450 11A1 in C41(DE3); Adx and AdR in E. coli)
T1 sequence (P05108 41-521 limits assumed): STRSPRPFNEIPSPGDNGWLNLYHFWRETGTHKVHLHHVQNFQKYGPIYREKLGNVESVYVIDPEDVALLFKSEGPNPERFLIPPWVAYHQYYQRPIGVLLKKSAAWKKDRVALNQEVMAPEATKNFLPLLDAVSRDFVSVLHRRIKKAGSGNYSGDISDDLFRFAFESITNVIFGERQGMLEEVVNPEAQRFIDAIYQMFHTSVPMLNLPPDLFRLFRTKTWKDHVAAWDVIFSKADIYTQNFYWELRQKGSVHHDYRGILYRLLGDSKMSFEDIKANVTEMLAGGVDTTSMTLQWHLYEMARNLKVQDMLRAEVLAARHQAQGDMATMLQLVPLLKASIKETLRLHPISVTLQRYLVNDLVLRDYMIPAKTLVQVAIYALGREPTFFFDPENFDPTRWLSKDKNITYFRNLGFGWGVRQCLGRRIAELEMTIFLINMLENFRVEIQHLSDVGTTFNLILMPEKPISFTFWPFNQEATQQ
T1 sequence (P00257 59-186 partner): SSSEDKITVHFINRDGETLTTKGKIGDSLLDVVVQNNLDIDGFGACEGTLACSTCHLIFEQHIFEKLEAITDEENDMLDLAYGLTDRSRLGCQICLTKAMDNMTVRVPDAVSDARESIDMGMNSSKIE
Method: In this reaction, a 5 μM complex of P450 11A1 and 4.5 μM cholesterol was assembled, and Adx was added at either equimolar (low, 5 μM) or 10-fold excess (high, 50 μM) concentrations (along with 10 μM AdR). The complex was diluted 2-fold (with 5 mM NADPH) in the apparatus to initiate the reaction, which was quenched at variable times. The products of the reaction were extracted and quantified by radio-HPLC. […] (The analysis of kinetic modeling is described below.)
P450 11A1 (5 μM) was reconstituted with its redox partners AdR (10 μM) and Adx (5 μM) on ice (10 min) prior to dilution in potassium Hepes buffer (50 mM, pH 7.4) and H2O and the addition of ^3H-cholesterol substrate (4.5 μM, 0.5 Ci/mmol). The concentration of substrate was deliberately kept slightly below the enzyme concentration to ensure that single-turnover conditions were strictly followed. The mixture (0.75 ml) was preincubated (37 °C, 5 min) in a shaking water bath prior to initiation with an equal volume of NADPH solution (5 mM, from a 10 mM stock in 50 mM potassium Hepes buffer, pH 7.4), thus reducing the concentrations of all enzymes and substrate to one-half their starting concentrations. After completing the desired incubation time, an aliquot (200 μl) was removed from the incubation and added to vials containing aqueous HCl (800 μl, 1 M). The quenched reactions were mixed with a vortex device and placed on ice. When the time course was complete, the quenched reactions were mixed with CH2Cl2 (5 ml) to extract reaction products and were centrifuged (10^3g, 5 min, 23 °C) to separate layers, and the organic (bottom) layers were transferred (4 ml) to fresh glass vials. The extraction process was repeated and the two extracts (2 × 4 ml) from each sample were combined to maximize product recovery. Samples (8 ml) were brought to dryness under a stream of nitrogen, and the dried residues were dissolved in CH3OH (75 μl) and transferred to autosampler vials for analysis by radio-HPLC.
Enzyme and NADPH solutions were prepared as described for the benchtop experiments (above) but with the modification that the concentration of Adx was increased to 50 μM (from 5 μM). […] The rapid quench-flow is a rapid mixing device that combines equal volumes (∼19 μl) of two solutions (P450 and NADPH, held at 37 °C) into a central internal chamber to initiate a reaction. After the preset reaction time is completed, the mixture (∼38 μl) is then rapidly combined with a quench solution (1 M HCl, ∼160 μl), expelled from the apparatus, and collected in vials. Utilizing this experimental design, the reaction of enzyme-substrate complex (P450 11A1-Adx-AdR and ^3H-cholesterol) was initiated with NADPH on a variable timescale (0–90 s), pooling five replicates of each time point to maximize sensitivity. The products of each quenched reaction (∼1 ml) were extracted with two volumes (5 ml) of CH2Cl2, brought to dryness, and dissolved in CH3OH as described for the benchtop experiments.
Samples (held at 4 °C) were injected (50 μl) using a Agilent 1100 Series HPLC system on a NovaPak (Waters) octadecylsilane (C18) 3.9 mm × 100 mm (4 μm) column (held at 25 °C) with a flow rate of 1.0 ml min^−1 using a gradient mobile phase of (A) H2O and (B) CH3CN as follows (all in % B, v/v): 0 min, 70%; 10 min, 100%; 35.5 min, 100%; 37 min, 30%; and 40 min, 70%).

Structure (SMILES): CC(C)CC[C@@H](O)[C@@H](C)[C@H]1CC[C@H]2[C@@H]3CC=C4C[C@@H](O)CC[C@]4(C)[C@H]3CC[C@]12C [22R-OH Chol, 22R-hydroxycholesterol]
- Kd [1]: 4.9 nM
- concentration in single-turnover reaction ([2]; 10-fold excess (high) Adx, time 0 s): 0 µM
- concentration in single-turnover reaction ([2]; 10-fold excess (high) Adx, time 0.25 s): 0.1665 µM
- concentration in single-turnover reaction ([2]; 10-fold excess (high) Adx, time 0.5 s): 0.3411 µM
- concentration in single-turnover reaction ([2]; 10-fold excess (high) Adx, time 0.75 s): 0.2577 µM
- concentration in single-turnover reaction ([2]; 10-fold excess (high) Adx, time 1 s): 0.2098 µM
- concentration in single-turnover reaction ([2]; 10-fold excess (high) Adx, time 2 s): 0.2144 µM
- concentration in single-turnover reaction ([2]; 10-fold excess (high) Adx, time 2.5 s): 0.1649 µM
- concentration in single-turnover reaction ([2]; 10-fold excess (high) Adx, time 3.5 s): 0.1652 µM
- concentration in single-turnover reaction ([2]; 10-fold excess (high) Adx, time 5 s): 0.1576 µM
- concentration in single-turnover reaction ([2]; 10-fold excess (high) Adx, time 6 s): 0.1666 µM
- concentration in single-turnover reaction ([2]; 10-fold excess (high) Adx, time 7.5 s): 0.1648 µM
- concentration in single-turnover reaction ([2]; 10-fold excess (high) Adx, time 10 s): 0.1591 µM
- concentration in single-turnover reaction ([2]; 10-fold excess (high) Adx, time 15 s): 0.1351 µM
- concentration in single-turnover reaction ([2]; 10-fold excess (high) Adx, time 20 s): 0.101 µM
- concentration in single-turnover reaction ([2]; 10-fold excess (high) Adx, time 30 s): 0.09739 µM
- concentration in single-turnover reaction ([2]; 10-fold excess (high) Adx, time 45 s): 0.06928 µM
- concentration in single-turnover reaction ([2]; 10-fold excess (high) Adx, time 60 s): 0.06822 µM
- concentration in single-turnover reaction ([2]; 10-fold excess (high) Adx, time 90 s): 0.05063 µM
- concentration in single-turnover reaction ([2]; second table, headed 10-fold excess (high) Adx, time 0 s): 0 µM
- concentration in single-turnover reaction ([2]; second table, headed 10-fold excess (high) Adx, time 10 s): 0.2262 µM
- concentration in single-turnover reaction ([2]; second table, headed 10-fold excess (high) Adx, time 25 s): 0.1763 µM
- concentration in single-turnover reaction ([2]; second table, headed 10-fold excess (high) Adx, time 50 s): 0.1172 µM
- concentration in single-turnover reaction ([2]; second table, headed 10-fold excess (high) Adx, time 75 s): 0.06255 µM
- concentration in single-turnover reaction ([2]; second table, headed 10-fold excess (high) Adx, time 100 s): 0 µM
- concentration in single-turnover reaction ([2]; second table, headed 10-fold excess (high) Adx, time 200 s): 0 µM
- concentration in single-turnover reaction ([2]; second table, headed 10-fold excess (high) Adx, time 500 s): 0 µM
